Measurements published in patent US20230310624A1, “AFFIBODY-CYTOTOXIN CONJUGATE FOR ACTIVE TARGETED THERAPY OF TUMORS, NANOPARTICLE THEREOF, PREPARATION METHOD THEREOF AND APPLICATION THEREOF” (priority 2020, published 2023).
Where a SMILES comes first, the peptide text is derived from it. [ ]: non-standard residue; d: D form. The star is where a group is joined. Dolaproine = CO[C@@H]([C@@H]1CCCN1)[C@@H](C)C(=O)O; Dil = CC[C@H](C)[C@H](NC)[C@@H](CC(=O)O)OC; X1 = C[C@@H](N*)[C@@H](O)c1ccccc1; NMeV = CN[C@H](C(=O)O)C(C)C

Assays:
[1] = test system: SKOV-3 tumor; assay: therapeutic effects on tumors of SKOV-3 tumor-bearing nude mice; assay type: in vivo
Protocol: A cell suspension of SKOV-3 cells in logarithmic growth phase is prepared at a concentration of 4.0><10^6 cells/mL, and inoculated subcutaneously into the right anterior axillary of nude mice, 200 μL per mouse; when the volume of tumor is around 100 mm^3, the mice are randomly selected into 4 groups, 5 in each group, which are respectively a PBS control group, a MMAE 0.6 mg/kg group, a ZHER2:342-MMAE nanoparticle group (the content of MMAE is 0.4 mg/kg), and a ZHER2:342-MMAE nanoparticle group (the content of MMAE is 0.6 mg/kg), wherein 200 μl PBS is injected for the PBS group, 0.6 mg/kg of MMAE is injected for the MMAE 0.6 mg/kg group, ZHER2:342-MMAE (containing 0.4 mg/kg MMAE) is injected for the ZHER2:342-MMAE group (containing 0.4 mg/kg MMAE), and ZHER2:342-MMAE (the content of MMAE is 0.6 mg/kg) is injected for the ZHER2:342-MMAE group (the content of MMAE is 0.6 mg/kg), once every 3 days. After each administration, the survival of tumor-bearing nude mice is observed, and the body weight and tumor size of the mice are measured and photographed for preservation.

[2] = test system: SKOV-3 tumor; assay: long-term cycle imaging in SKOV-3 tumor-bearing nude mice; assay type: in vivo
Protocol: A cell suspension of SKOV-3 cells in logarithmic growth phase is prepared at a concentration of 4.0×10^6 cells/mL, and inoculated subcutaneously into the right anterior axillary of nude mice, 200 μL per mouse; when the volume of tumor is around 500 mm^3, two mice are randomly selected as a control group and an experimental group. […] After 4 h and 12 h of injection, ZKKS-Mulaurora imaging system is used to take pictures and analyze the fluorescence intensity of the whole body of the mice.

[3] = in rats; cited from earlier work

For `CC[C@H](C)[C@@H]([C@@H](CC(=O)N1CCC[C@H]1[C@H](OC)[C@@H](C)C(=O)N[C@H](C)[C@@H](O)c1ccccc1)OC)N(C)C(=O)[C@@H](NC(=O)[C@@H](NC)C(C)C)C(C)C` [MMAE, monomethyl auristatin E] (H-[NMeV]V[Dil][Dolaproine]-X1), the “body weight of the mice” value ([1]; MMAE 0.6 mg/kg, after administration) was “drops sharply” and the “survival of tumor-bearing nude mice” value ([1]; MMAE (content) 0.6 mg/kg, once every 3 days) was “all died”.

With cyanine dye 5.5 [Cy5.5] the whole-body fluorescence distribution ([2]; after 4 hours of injection) was “no obvious presence in the mouse body” and the whole-body fluorescence distribution ([2]; after 12 hours) was “basically completely metabolized”.

In the case of `CC(=O)O[C@H]1C(=O)[C@@]2(C)[C@H]([C@H](OC(=O)c3ccccc3)[C@]3(O)C[C@H](OC(=O)[C@H](O)[C@@H](NC(=O)c4ccccc4)c4ccccc4)C(C)=C1C3(C)C)[C@]1(OC(C)=O)CO[C@@H]1C[C@@H]2O` [paclitaxel], the blood half-life period [3] is listed as 1.1 h.
